Key:
[1] = assay type: in vivo, rat; conditions: rats, oral (gastric gavage), 50 mg CDP-choline, 24 hours
Method: The labelled carbon atom is that of the methyl group of the choline moiety.
At different time intervals a certain amount of blood is collected and, after 24 hours from the beginning of the experiment, the animals are sacrificed. The amount of radioactivity is measured in predetermined serum volumes or weight of the various organs or tissues.
The values are expressed as c.p.m.x 10^-3 /gram of organ or tissue.

[2] = oral, compound as such; cited from earlier work
[3] = Serum kinetics and absolute bioavailability of ^14 C-labelled CDP-choline and "ASONIC" after i.v. and oral administration in Cynomolgus monkeys; assay type: in vivo, Cynomolgus monkey; conditions: for Plasmatic concentration: average and S.D. of 2 monkeys
Method: From the end of the curves serum concentration/time, it was possible to calculate the constant of the apparent elimination speed from the organism as well as the relative half-life. These values were utilized in calculating the AUC T30 hours →T.infin. for the total of the curves concentration/time in the same animal. The AUC To →T30 hrs was calculated by means of the trapezium methods. […] For each dosage, a randomized cross-over procedure was used. Seriated blood samples were collected until 30 hours after each administration. From the single curves concentration/time it was possible to calculate the AUC To →T30 hrs. After each administration, including the intravenous one, urine was collected at the following time intervals: 0-24 hours, 24-48 hours and 48-72 hours.

C[N+](C)(C)CCOP(=O)(O)OP(=O)([O-])OC[C@H]1O[C@@H](n2ccc(N)nc2=O)[C@H](O)[C@@H]1O [CDP-choline, cytidine diphosphocholine]
Radioactivity value in brain [1]: 1.55 c.p.m.x 10^-3 /gram of organ o | Radioactivity value in kidney [1]: 46.3 c.p.m.x 10^-3 /gram of organ o | Radioactivity value in liver [1]: 65.4 c.p.m.x 10^-3 /gram of organ o | Radioactivity value in muscle [1]: 3.1 c.p.m.x 10^-3 /gram of organ o | Absorbability [2]: poor absorbability | Plasmatic concentration ([3]; 25 mg/kg i.v., 5'): 10561 ± 2620 DPM/ml serum | Plasmatic concentration ([3]; 25 mg/kg i.v., 15'): 4088 ± 1299 DPM/ml serum | Plasmatic concentration ([3]; 25 mg/kg i.v., 30'): 2846 ± 877 DPM/ml serum | Plasmatic concentration ([3]; 25 mg/kg i.v., 60'): 2127 ± 704 DPM/ml serum | Plasmatic concentration ([3]; 25 mg/kg i.v., 2 hr): 2397 ± 329 DPM/ml serum | Plasmatic concentration ([3]; 25 mg/kg i.v., 4 hr): 3064 ± 431 DPM/ml serum | Plasmatic concentration ([3]; 25 mg/kg i.v., 7 hr): 3566 ± 631 DPM/ml serum | Plasmatic concentration ([3]; 25 mg/kg i.v., 24 hr): 2035 ± 315 DPM/ml serum | Plasmatic concentration ([3]; 25 mg/kg i.v., 30 hr): 1947 ± 280 DPM/ml serum | Plasmatic concentration ([3]; 200 mg/kg per os, 15'): 61 DPM/ml serum | Plasmatic concentration ([3]; 200 mg/kg per os, 30'): 45 DPM/ml serum | Plasmatic concentration ([3]; 200 mg/kg per os, 45'): 56 ± 4 DPM/ml serum | Plasmatic concentration ([3]; 200 mg/kg per os, 60'): 91 ± 4.2 DPM/ml serum | Plasmatic concentration ([3]; 200 mg/kg per os, 4 hr): 154 ± 26 DPM/ml serum | Plasmatic concentration ([3]; 200 mg/kg per os, 7 hr): 774 ± 110 DPM/ml serum | Plasmatic concentration ([3]; 200 mg/kg per os, 9 hr): 669 ± 105 DPM/ml serum | Plasmatic concentration ([3]; 200 mg/kg per os, 24 hr): 378 ± 55 DPM/ml serum | Plasmatic concentration ([3]; 200 mg/kg per os, 30 hr): 344 ± 58 DPM/ml serum | Plasmatic concentration ([3]; 400 mg/kg per os, 30'): 35 DPM/ml serum | Plasmatic concentration ([3]; 400 mg/kg per os, 60'): 61 ± 12 DPM/ml serum | Plasmatic concentration ([3]; 400 mg/kg per os, 90'): 40 ± 16 DPM/ml serum | Plasmatic concentration ([3]; 400 mg/kg per os, 2 hr): 78 ± 4.2 DPM/ml serum | Plasmatic concentration ([3]; 400 mg/kg per os, 3 hr): 181 ± 9.2 DPM/ml serum | Plasmatic concentration ([3]; 400 mg/kg per os, 4 hr): 448 ± 66 DPM/ml serum | Plasmatic concentration ([3]; 400 mg/kg per os, 6 hr): 1496 ± 134 DPM/ml serum | Plasmatic concentration ([3]; 400 mg/kg per os, 7 hr): 2636 ± 107 DPM/ml serum | Plasmatic concentration ([3]; 400 mg/kg per os, 8 hr): 4163 ± 101 DPM/ml serum | Plasmatic concentration ([3]; 400 mg/kg per os, 9 hr): 4813 ± 513 DPM/ml serum | Plasmatic concentration ([3]; 400 mg/kg per os, 24 hr): 536 ± 122 DPM/ml serum | Plasmatic concentration ([3]; 400 mg/kg per os, 30 hr): 470 ± 98 DPM/ml serum | Serum concentration ([3]; monkey no. 1, 25 mg/kg i.v., 5'): 8708 DPM/ml | Serum concentration ([3]; monkey no. 1, 25 mg/kg i.v., 15'): 3169 DPM/ml | Serum concentration ([3]; monkey no. 1, 25 mg/kg i.v., 30'): 2226 DPM/ml | Serum concentration ([3]; monkey no. 1, 25 mg/kg i.v., 60'): 1629 DPM/ml | Serum concentration ([3]; monkey no. 1, 25 mg/kg i.v., 2 hr): 2165 DPM/ml | Serum concentration ([3]; monkey no. 1, 25 mg/kg i.v., 4 hr): 2760 DPM/ml | Serum concentration ([3]; monkey no. 1, 25 mg/kg i.v., 7 hr): 3120 DPM/ml | Serum concentration ([3]; monkey no. 1, 25 mg/kg i.v., 24 hr): 1812 DPM/ml | Serum concentration ([3]; monkey no. 1, 25 mg/kg i.v., 30 hr): 1749 DPM/ml | Serum concentration ([3]; monkey no. 1, 200 mg/kg per os, 30'): 45 DPM/ml | Serum concentration ([3]; monkey no. 1, 200 mg/kg per os, 45'): 53 DPM/ml | Serum concentration ([3]; monkey no. 1, 200 mg/kg per os, 60'): 88 DPM/ml | Serum concentration ([3]; monkey no. 1, 200 mg/kg per os, 7 hr): 852 DPM/ml | Serum concentration ([3]; monkey no. 1, 200 mg/kg per os, 9 hr): 743 DPM/ml | Serum concentration ([3]; monkey no. 1, 200 mg/kg per os, 24 hr): 339 DPM/ml | Serum concentration ([3]; monkey no. 1, 400 mg/kg per os, 30'): 35 DPM/ml | Serum concentration ([3]; monkey no. 1, 400 mg/kg per os, 60'): 52 DPM/ml | Serum concentration ([3]; monkey no. 1, 400 mg/kg per os, 90'): 29 DPM/ml | Serum concentration ([3]; monkey no. 1, 400 mg/kg per os, 2 hr): 75 DPM/ml | Serum concentration ([3]; monkey no. 1, 400 mg/kg per os, 3 hr): 187 DPM/ml | Serum concentration ([3]; monkey no. 1, 400 mg/kg per os, 4 hr): 401 DPM/ml | Serum concentration ([3]; monkey no. 1, 400 mg/kg per os, 6 hr): 1590 DPM/ml | Serum concentration ([3]; monkey no. 1, 400 mg/kg per os, 7 hr): 2712 DPM/ml | Serum concentration ([3]; monkey no. 1, 400 mg/kg per os, 8 hr): 4092 DPM/ml | Serum concentration ([3]; monkey no. 1, 400 mg/kg per os, 9 hr): 5175 DPM/ml | Serum concentration ([3]; monkey no. 1, 400 mg/kg per os, 24 hr): 622 DPM/ml | Serum concentration ([3]; monkey no. 1, 400 mg/kg per os, 30 hr): 540 DPM/ml | Serum concentration ([3]; monkey no. 2, 25 mg/kg i.v., 5'): 12414 DPM/ml | Serum concentration ([3]; monkey no. 2, 25 mg/kg i.v., 15'): 5007 DPM/ml

From patent US4386077A (Made Italiana s.r.l, priority 1981, dated 1983)
